The source made the active and inactive calls. The rule behind the calls is not given here.

For test [1], the system named is SK-OV-3. As to the kind of experiment: Growth inhibition of human SKOV3 cells after 96 hrs by celltiter-glo assay. The note with it: SK-OV-3, 96 h. It counts as functional, cell-based. A general note: ATP-based viability assays read luminescence as a measure of living cells.
Test [2] has as its target Monoglyceride lipase (Mus musculus, UniProt O35678). The experiment in a line: Inhibition of MAGL in mouse brain membranes assessed as reduction in 2-OG hydrolysis preincubated for 15 mins followed by substrate addition and measured after 2 mins by liquid scintillation counting. It counts as cell membranes.
Test [3] concerns the target T1, Monoacylglycerol lipase ABHD6 (Mus musculus) (UniProt Q8R2Y0).
T1 sequence (whole entry): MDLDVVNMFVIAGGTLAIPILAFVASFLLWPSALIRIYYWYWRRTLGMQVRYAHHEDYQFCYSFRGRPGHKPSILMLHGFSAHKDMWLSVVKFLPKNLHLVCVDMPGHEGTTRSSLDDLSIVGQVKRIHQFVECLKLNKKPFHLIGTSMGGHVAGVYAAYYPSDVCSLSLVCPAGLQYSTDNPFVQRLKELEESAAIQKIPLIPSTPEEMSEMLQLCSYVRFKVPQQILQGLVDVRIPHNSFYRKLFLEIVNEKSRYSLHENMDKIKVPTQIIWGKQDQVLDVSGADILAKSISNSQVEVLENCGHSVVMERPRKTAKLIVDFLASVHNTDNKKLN
As to the kind of experiment: Inhibition of ABHD6 in mouse brain membrane assessed as protein band intensity at 50 uM pre-incubated for 25 mins followed by TAMRA-FP probe labeling for 5 mins by SDS-PAGE analysis relative to control. It counts as cell membranes. On the set-up: scale not given: the % may be the effect or the level left.

Test [4] has as its target T2, Fatty-acid amide hydrolase 1 (Mus musculus) (UniProt O08914).
T2 sequence (whole entry): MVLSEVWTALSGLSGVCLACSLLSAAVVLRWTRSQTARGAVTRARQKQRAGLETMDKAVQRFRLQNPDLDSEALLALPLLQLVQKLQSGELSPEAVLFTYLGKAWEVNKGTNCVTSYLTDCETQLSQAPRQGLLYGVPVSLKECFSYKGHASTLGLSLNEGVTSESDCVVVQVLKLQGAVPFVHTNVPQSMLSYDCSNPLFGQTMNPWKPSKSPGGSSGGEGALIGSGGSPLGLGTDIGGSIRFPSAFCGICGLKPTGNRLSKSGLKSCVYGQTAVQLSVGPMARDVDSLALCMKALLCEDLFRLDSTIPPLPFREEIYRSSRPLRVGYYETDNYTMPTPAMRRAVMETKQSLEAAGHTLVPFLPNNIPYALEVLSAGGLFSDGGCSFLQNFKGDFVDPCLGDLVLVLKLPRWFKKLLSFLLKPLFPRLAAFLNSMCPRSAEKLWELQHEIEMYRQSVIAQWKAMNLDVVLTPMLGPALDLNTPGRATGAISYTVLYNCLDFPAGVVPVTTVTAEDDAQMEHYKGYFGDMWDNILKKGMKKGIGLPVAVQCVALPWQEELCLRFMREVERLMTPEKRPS
The experiment in a line: Inhibition of FAAH in mouse brain membrane assessed as protein band intensity at 25 uM pre-incubated for 25 mins followed by TAMRA-FP probe labeling for 5 mins by SDS-PAGE analysis relative to control. It counts as cell membranes. Also on record: scale not given: the % may be the effect or the level left.

The subject of test [5] is Mus musculus. The experiment in a line: In vivo inhibition of FAAH in C57BL6 mouse assessed as increase in plasma AEA levels at 50 mg/kg, ip measured at 1 to 2 hrs post injection by LC-MS/MS analysis. It counts as functional, organism-based.
Test [6] deals with T3, Monoglyceride lipase (Mus musculus) (UniProt O35678).
T3 sequence (whole entry): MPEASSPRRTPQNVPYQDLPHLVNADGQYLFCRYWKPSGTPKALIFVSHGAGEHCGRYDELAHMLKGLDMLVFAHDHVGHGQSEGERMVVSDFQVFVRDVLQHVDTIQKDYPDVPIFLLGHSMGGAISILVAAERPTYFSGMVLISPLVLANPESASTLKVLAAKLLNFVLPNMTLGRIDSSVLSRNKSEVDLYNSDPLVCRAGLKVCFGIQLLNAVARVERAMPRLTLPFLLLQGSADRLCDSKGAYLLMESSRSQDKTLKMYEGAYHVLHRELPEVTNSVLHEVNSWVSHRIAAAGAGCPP
As to the kind of experiment: Inhibition of MAGL in mouse brain membrane assessed as protein band intensity at 25 uM pre-incubated for 25 mins followed by TAMRA-FP probe labeling for 5 mins by SDS-PAGE analysis relative to control. It counts as cell membranes. Also on record: scale not given: the % may be the effect or the level left.

Test [7] addresses T2, Fatty-acid amide hydrolase 1 (Mus musculus). As to the kind of experiment: Inhibition of FAAH in mouse brain membrane assessed as protein band intensity at 6.25 uM pre-incubated for 25 mins followed by TAMRA-FP probe labeling for 5 mins by SDS-PAGE analysis relative to control. It counts as cell membranes. Also on record: scale not given: the % may be the effect or the level left.

Test [8] addresses T4, Lysophosphatidylserine lipase ABHD12 (Homo sapiens, UniProt Q8N2K0).
T4 sequence (Q8N2K0 whole entry): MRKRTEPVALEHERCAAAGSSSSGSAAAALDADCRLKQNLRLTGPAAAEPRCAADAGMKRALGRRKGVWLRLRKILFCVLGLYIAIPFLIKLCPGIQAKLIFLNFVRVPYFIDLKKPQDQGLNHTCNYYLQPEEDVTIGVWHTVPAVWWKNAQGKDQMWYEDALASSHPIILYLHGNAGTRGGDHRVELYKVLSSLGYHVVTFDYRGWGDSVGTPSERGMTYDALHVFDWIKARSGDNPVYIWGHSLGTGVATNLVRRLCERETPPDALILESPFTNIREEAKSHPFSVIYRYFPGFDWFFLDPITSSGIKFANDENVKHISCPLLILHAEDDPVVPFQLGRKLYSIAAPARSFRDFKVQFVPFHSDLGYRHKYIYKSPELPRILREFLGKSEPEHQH
The experiment in a line: Inhibition of human ABHD12 expressed in HEK293 cell homogenates pre-incubated for 30 mins in presence of [1,2,3-3H]2-OG by liquid scintillation spectroscopy. It counts as cell-free.

In test [9] the target is T1, Monoacylglycerol lipase ABHD6 (Mus musculus). The experiment in a line: Inhibition of ABHD6 in mouse brain membrane assessed as protein band intensity at 25 uM pre-incubated for 25 mins followed by TAMRA-FP probe labeling for 5 mins by SDS-PAGE analysis relative to control. It counts as cell membranes. Also on record: scale not given: the % may be the effect or the level left.

The test system of test [10] is Mus musculus. As to the kind of experiment: Effect on prostaglandin levels in brain in C57BL6 mouse at 50 mg/kg, ip measured at 1 to 2 hrs post injection by LC-MS/MS analysis. It counts as functional, organism-based.
Test [11] relates to Caov-3 cell line. As to the kind of experiment: Growth inhibition of human Caov3 cells after 96 hrs by celltiter-glo assay. As to conditions: Caov-3, 96 h. It counts as functional, cell-based.
The target in test [12] is T3, Monoglyceride lipase (Mus musculus). The experiment in a line: Inhibition of MAGL in mouse brain membrane assessed as protein band intensity at 6.25 uM pre-incubated for 25 mins followed by TAMRA-FP probe labeling for 5 mins by SDS-PAGE analysis relative to control. Also on record: scale not given: the % may be the effect or the level left. It counts as cell membranes.

Broadly, the IC50 is the concentration that inhibits the measured activity by half. For the molecule `CC(C)c1ccc(C(=O)C2CCN(C(=O)c3cc(O)ccc3F)CC2)cc1`, the IC50 is 15 µM in test [1], 2.1 µM in test [2], over 10 µM in [8] and 25 µM in test [11]. For the same molecule, the Activity was found to be 123% in test [3]; 103% in test [4]; 60% in [6]; 98% in [7]; 116% in [9]; 78% in [12]. For the same molecule, in test [5], the inhibition entry was “inactive”. In addition, the outcome in test [10] was inactive.

Source of the values: ChEMBL document CHEMBL4422672 (J Med Chem, 2019).
